US20100303758A1, “Novel Glucocorticoid Receptor Agonists” (priority 2009, published 2010)

What was measured:
human GR = target: T1, human GR (Homo sapiens, UniProt P04150); test: GR agonist potency, MMTV-luciferase reporter in SW1353 cells; format: cell-based; conditions: human chondrosarcoma cell-line SW1353 stably transfected with MMTV-luciferase reporter; approx. 18 hours; data as percentage of 1 μM dexamethasone positive control
T1 construct: SW1353 naturally expresses human GR; endogenous in cells; host or cells: human chondrosarcoma cell-line SW1353 stably transfected with an MMTV-luciferase reporter construct
T1 sequence (P04150 1-777): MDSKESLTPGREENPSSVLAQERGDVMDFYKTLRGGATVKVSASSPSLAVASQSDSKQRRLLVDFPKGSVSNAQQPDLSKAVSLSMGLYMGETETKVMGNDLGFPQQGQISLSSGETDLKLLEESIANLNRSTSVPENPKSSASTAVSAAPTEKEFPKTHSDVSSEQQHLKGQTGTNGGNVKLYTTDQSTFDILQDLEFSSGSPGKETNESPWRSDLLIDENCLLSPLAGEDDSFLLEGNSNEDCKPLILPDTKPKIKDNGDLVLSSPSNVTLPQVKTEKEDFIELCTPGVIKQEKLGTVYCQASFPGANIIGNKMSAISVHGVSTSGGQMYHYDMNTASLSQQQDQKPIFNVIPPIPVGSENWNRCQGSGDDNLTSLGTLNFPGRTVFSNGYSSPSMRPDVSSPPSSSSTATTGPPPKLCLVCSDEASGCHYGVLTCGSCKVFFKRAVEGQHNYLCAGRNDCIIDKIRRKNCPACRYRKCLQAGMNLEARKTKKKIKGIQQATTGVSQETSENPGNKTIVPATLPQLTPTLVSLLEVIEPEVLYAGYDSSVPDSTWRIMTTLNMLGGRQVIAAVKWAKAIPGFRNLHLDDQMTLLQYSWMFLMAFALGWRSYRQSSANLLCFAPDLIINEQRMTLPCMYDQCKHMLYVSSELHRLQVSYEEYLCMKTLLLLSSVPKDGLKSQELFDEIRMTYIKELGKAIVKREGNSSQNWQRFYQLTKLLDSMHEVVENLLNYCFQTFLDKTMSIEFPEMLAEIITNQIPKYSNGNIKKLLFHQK
Procedure: Glucococorticoid receptor (GR) agonist potency was determined in the human chondrosarcoma cell-line SW1353 stably transfected with an MMTV-luciferase reporter construct. SW1353 naturally expresses human GR, which on binding a glucocorticoid agonist activates glucocorticoid response elements within the MMTV promoter, driving expression of the luciferase gene.
Frozen SW1353 cells were revived in DMEM medium, without sodium pyruvate or phenol red, supplemented with 2 mM L-glutamine, 1 μg/ml insulin, 2 mg/ml lactalbumin hydrosylate and 0.5 μg/ml ascorbate. Cells were seeded at approximately 5000 cells/well (35 μl/well) in 384-well clear bottom, tissue culture treated plates. Steroid dose-response dilutions were prepared in steroid diluent (PBS containing 2.5% (v/v) DMSO and 0.05% (v/v) pluronic detergent) and 5 μl added to each well. The volume was made up to 50 μl per well with steroid diluent. Positive control wells contained 1 μM dexamethasone. Plates were incubated for approximately 18 hours at 37° C. in an air/5% CO2 atmosphere in a humidified incubator before Britelite reagent (10 μl; Perkin-Elmer) was added to each well. Each plate was incubated for 2 minutes in the dark and luminescence quantified using a LJL Biosystems Analyst luminometer. Data for test compounds (expressed as percentage of the dexamethasone positive control) were used to construct dose response curves from which EC50 values were estimated.

[1] = Inhibition of TNF-α release from LPS stimulated isolated human PBMC; format: cell-based; conditions: Homo sapiens, PBMC, read-out: IC50 (nM) for inhibition of TNF-α release
Procedure: The anti-inflammatory activity of the compounds against human leukocytes in vitro was also evaluated by determining inhibition of tumour necrosis factor-α (TNF-α) release from lipopolysaccharide (LPS) stimulated isolated human peripheral mononuclear cells (PBMC).
Peripheral venous blood from healthy, non-medicated donors was collected using ethylenediaminetetraacetic acid (EDTA) as the anti-coagulant. For PBMC preparation, samples of blood were diluted 1:1 with sterile phosphate buffered saline and then separated using ACCUSPIN™ System-Histopaque®-1077 tubes (Sigma-Aldrich, St Louis, Mo.), centrifuged at 400 g for 35 minutes. Buffy coat cells were removed into PBS, centrifuged at 200 g for 10 minutes and re-suspended in PBMC assay buffer (Hanks Balanced Salt Solution, 0.28% [w/v] 4-[2-hydroxyethyl]-1-piperazineethanesulfonic acid [HEPES], 0.01% [w/v] low-endotoxin bovine serum albumin [BSA]. A differential white cell count was performed and PBMC's diluted to 1×10^6 lymphocytes per ml in PBMC assay buffer.
Test compounds were dissolved in DMSO and diluted in PBMC assay buffer (final DMSO concentration 1%) to cover an appropriate concentration range, e.g 0.001 nM to 10000 nM. Samples of test compound solution or vehicle (20 μl) were added into 96-well tissue culture treated plates (Corning) and PBMC (160 μl) added to each well. The assay mixtures were incubated at 37° C. for 1 h in a humidified incubator containing an atmosphere of air supplemented with 5% CO2 before adding LPS (20 μl of 100 ng/ml for PBMC). Plates were returned to the incubator for a further 18 hours, and then centrifuged before recovery of samples of supernatant. TNF-α in the samples was determined using an enzyme-linked immunosorbent assay (ELISA) (Invitrogen kit no CHC-1754; Invitrogen Carlsbad, Calif.) and following the manufacturers instructions. Dose response curves were constructed from which IC50 values were calculated.

SMILES: C[C@]12C=CC(=O)C=C1[C@@H](F)C[C@H]1[C@@H]3CC[C@](OC(=O)c4ccc(Oc5ccccc5)cc4)(C(=O)OCC#N)[C@@]3(C)C[C@H](O)[C@@]12F [Example 4, cyanomethyl (6alpha,11beta,17alpha)-6,9-difluoro-11-hydroxy-3-oxo-17-[(4-phenoxybenzoyl)oxy]androsta-1,4-diene-17-carboxylate]
- EC50 (human GR): 23.6 nM
- IC50 [1]: 0.154 nM

SMILES: CSc1ccc(Oc2ccc(C(=O)O[C@]3(C(=O)OCC#N)[C@H](C)C[C@H]4[C@@H]5C[C@H](F)C6=CC(=O)C=C[C@]6(C)[C@@]5(F)[C@@H](O)C[C@@]43C)cc2)cc1 [Example 48, Cyanomethyl (6alpha,11beta,16alpha, 17alpha)-6,9-difluoro-11-hydroxy-16-methyl-17-({4-[4-(methylthio)phenoxy]benzoyl}oxy)-3-oxoandrosta-1,4-diene-17-carboxylate]
- EC50 (human GR): 14.2 nM
- IC50 [1]: 0.09 nM

SMILES: C[C@]12C=CC(=O)C=C1CC[C@H]1[C@@H]3CC[C@](OC(=O)c4ccc(Oc5ccc(O)c(Cl)c5)cc4)(C(=O)SCF)[C@@]3(C)C[C@H](O)[C@@]12F [Example 26, (11beta, 17alpha)-9-fluoro-17-{[(fluoromethyl)thio]carbonyl}-11-hydroxy-3-oxoandrosta-1,4-dien-17-y1 4-(3-chloro-4-hydroxyphenoxy)-benzoate]
- EC50 (human GR): 42.6 nM
- IC50 [1]: 0.177 nM

SMILES: C[C@]12C=CC(=O)C=C1CC[C@H]1[C@@H]3CC[C@](OC(=O)c4ccc(Oc5ccc(Cl)c(O)c5)cc4)(C(=O)SCF)[C@@]3(C)C[C@H](O)[C@@]12F [Example 40, (11beta,17alpha)-9-fluoro-17-{[(fluoromethyl)thio]carbonyl}-11-hydroxy-3-oxoandrosta-1,4-dien-17-yl 4-(4-chloro-3-hydroxyphenoxy)benzoate]
- EC50 (human GR): 31.2 nM
- IC50 [1]: 0.053 nM

SMILES: C[C@]12C=CC(=O)C=C1CC[C@H]1[C@@H]3CC[C@](OC(=O)c4ccc(Sc5ccccc5)cc4)(C(=O)SCCl)[C@@]3(C)C[C@H](O)[C@@]12F [Example 30, (11beta,17alpha)-17-{[(chloromethyl)thio]carbonyl}-9-fluoro-11-hydroxy-3-oxoandrosta-1,4-dien-17-yl 4-(phenylthio)benzoate]
- EC50 (human GR): 20.6 nM
- IC50 [1]: 0.256 nM

SMILES: C[C@@H]1C[C@H]2[C@@H]3C[C@H](F)C4=CC(=O)C=C[C@]4(C)[C@@]3(F)[C@@H](O)C[C@]2(C)[C@@]1(OC(=O)c1ccc(Oc2ccc(Cl)c(O)c2)cc1)C(=O)OCC#N [Example 42, Cyanomethyl (6alpha,11beta,16alpha,17alpha)-17-{[4-(4-chloro-3-hydroxyphenoxy)benzoyl]oxy}-6,9-difluoro-11-hydroxy-16-methyl-3-oxoandrosta-1,4-diene-17-carboxylate]
- EC50 (human GR): 24.4 nM
- IC50 [1]: 0.443 nM

SMILES: CSc1cccc(Oc2ccc(C(=O)O[C@]3(C(=O)OCF)[C@H](C)C[C@H]4[C@@H]5C[C@H](F)C6=CC(=O)C=C[C@]6(C)[C@@]5(F)[C@@H](O)C[C@@]43C)cc2)c1 [Example 51, Fluoromethyl (6alpha,11beta,16alpha, 17alpha)-6,9-difluoro-11-hydroxy-16-methyl-17-({4-[3-(methylthio)phenoxy]benzoyl}oxy)-3-oxoandrosta-1,4-diene-17-carboxylate]
- EC50 (human GR): 8.7 nM
- IC50 [1]: 0.057 nM

SMILES: C[C@]12C=CC(=O)C=C1[C@@H](F)C[C@H]1[C@@H]3CC[C@](OC(=O)c4ccc(SCc5ccc(O)cc5)cc4)(C(=O)OCC#N)[C@@]3(C)C[C@H](O)[C@@]12F [Example 6, cyanomethyl (6alpha,11beta,17alpha)-6,9-difluoro-11-hydroxy-17-({4-[(4-hydroxybenzyl)thio]benzoyl}oxy)-3-oxoandrosta-1,4-diene-17-carboxylate]
- EC50 (human GR): 23.5 nM
- IC50 [1]: 0.207 nM

SMILES: C[C@]12C=CC(=O)C=C1CC[C@H]1[C@@H]3CC[C@](OC(=O)c4ccc(Oc5ccc(O)nc5)cc4)(C(=O)OCC#N)[C@@]3(C)C[C@H](O)[C@@]12F [Example 36, cyanomethyl (11beta,17alpha)-9-fluoro-11-hydroxy-17-({4-[(6-hydroxypyridin-3-yl)oxy]benzoyl}-oxy)-3-oxoandrosta-1,4-diene-17-carboxylate]
- EC50 (human GR): 16.3 nM
- IC50 [1]: 0.167 nM

SMILES: C[C@]12C=CC(=O)C=C1CC[C@H]1[C@@H]3CC[C@](OC(=O)c4ccc(Sc5cccc(O)c5)cc4)(C(=O)OCC#N)[C@@]3(C)C[C@H](O)[C@@]12F [Example 15, cyanomethyl(11beta,17alpha)-9-fluoro-11-hydroxy-17-({4-[(3-hydroxyphenyl)thio]-benzoyl}oxy)-3-oxoandrosta-1,4-diene-17-carboxylate]
- EC50 (human GR): 35.1 nM
- IC50 [1]: 0.164 nM

SMILES: CSc1ccc(Sc2ccc(C(=O)O[C@]3(C(=O)OCC#N)[C@H](C)C[C@H]4[C@@H]5C[C@H](F)C6=CC(=O)C=C[C@]6(C)[C@@]5(F)[C@@H](O)C[C@@]43C)cc2)cc1 [Example 46, Cyanomethyl (6alpha,11beta,16alpha,17alpha)-6,9-difluoro-11-hydroxy-16-methyl-17-[(4-{[4-(methylthio)phenyl]thio}benzoyl)oxy]-3-oxoandrosta-1,4-diene-17-carboxylate]
- EC50 (human GR): 44.3 nM
- IC50 [1]: 0.372 nM

SMILES: CSc1cccc(Oc2ccc(C(=O)O[C@]3(C(=O)OCC#N)[C@H](C)C[C@H]4[C@@H]5C[C@H](F)C6=CC(=O)C=C[C@]6(C)[C@@]5(F)[C@@H](O)C[C@@]43C)cc2)c1 [Example 47, Cyanomethyl (6alpha,11beta,16alpha, 17alpha)-6,9-difluoro-11-hydroxy-16-methyl-17-({4-[3-(methylthio)phenoxy]benzoyl}oxy)-3-oxoandrosta-1,4-diene-17-carboxylate]
- EC50 (human GR): 25.2 nM
- IC50 [1]: 0.731 nM

SMILES: C[C@]12C=CC(=O)C=C1[C@@H](F)C[C@H]1[C@@H]3CC[C@](OC(=O)c4ccc(CSc5ccc(O)cc5)cc4)(C(=O)OCC#N)[C@@]3(C)C[C@H](O)[C@@]12F [Example 11, cyanomethyl(6alpha,11beta,17alpha)-6,9-difluoro-11-hydroxy-17-[(4-{[(4-hydroxyphenyl)thio]methyl}benzoyl)oxy]-3-oxoandrosta-1,4-diene-17-carboxylate]
- EC50 (human GR): 30.2 nM
- IC50 [1]: 0.735 nM

SMILES: C[C@]12C=CC(=O)C=C1[C@@H](F)C[C@H]1[C@@H]3CC[C@](OC(=O)c4ccc(Sc5ccccc5)cc4)(C(=O)OCC#N)[C@@]3(C)C[C@H](O)[C@@]12F [Example 3, cyanomethyl (6alpha,11beta,17alpha)-6,9-difluoro-11-hydroxy-3-oxo-17-{[4-(phenylthio)benzoyl]oxy}androsta-1,4-diene-17-carboxylate]
- EC50 (human GR): 50.5 nM
- IC50 [1]: 0.143 nM
